Measured values: ChEMBL document CHEMBL1149241 (J Med Chem, 2004)

Target: Beta-secretase 1 (Homo sapiens, UniProt P56817)
Test: Inhibition of BACE1 by electrochemiluminescence assay

Chain of Beta-secretase 1 (P56817 whole entry): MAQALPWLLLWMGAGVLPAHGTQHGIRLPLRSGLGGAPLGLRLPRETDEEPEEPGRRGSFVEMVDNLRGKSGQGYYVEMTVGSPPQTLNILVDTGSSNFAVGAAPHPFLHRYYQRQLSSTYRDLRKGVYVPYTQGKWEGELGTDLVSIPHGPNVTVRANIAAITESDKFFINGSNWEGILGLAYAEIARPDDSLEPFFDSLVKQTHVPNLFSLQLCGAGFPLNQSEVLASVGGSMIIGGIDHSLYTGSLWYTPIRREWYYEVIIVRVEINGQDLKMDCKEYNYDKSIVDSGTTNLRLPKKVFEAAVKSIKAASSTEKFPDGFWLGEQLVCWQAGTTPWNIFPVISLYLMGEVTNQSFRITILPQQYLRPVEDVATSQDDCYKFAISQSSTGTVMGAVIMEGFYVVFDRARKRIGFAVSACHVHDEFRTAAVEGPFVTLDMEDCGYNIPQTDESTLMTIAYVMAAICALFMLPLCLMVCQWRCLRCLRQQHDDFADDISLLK

Structure (SMILES) | IC50 [µM]
C[C@@H](NC(=O)c1cc(OCC(=O)NCCCCCN)cc(-c2ccccc2C#N)c1)c1ccccc1 | 21
C[C@@H](NC(=O)c1cc(OCC(=O)NCCCCCN)cc(OS(=O)(=O)Cc2ccccc2)c1)c1ccccc1 | 3.4
CC(NC(=O)c1cc(OCC(=O)NCCCCCN)cc(OS(=O)(=O)Cc2ccccc2)c1)c1ccccc1 (single isomer, unassigned) | > 100
